Experimental data reported in ChEMBL document CHEMBL1201861, “Genomics of Drug Sensitity in Cancer screening data, Wellcome Trust Sanger Institute”.

test system: DSH1; experiment: cells; assay type: functional, cell-based; conditions: Homo sapiens;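 further: growth inhibition of human DSH1 cells, measured with a cell viability readout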
Description: SANGER: Inhibition of human DSH1 cell growth in a cell viability assay.

Compound | IC50 [nM]
C[C@@H](Oc1cc(-c2cnn(C3CCNCC3)c2)cnc1N)c1c(Cl)ccc(F)c1Cl [CRIZOTINIB] | > 2000

test system: OMC-1; experiment: cells; assay type: functional, cell-based, Homo sapiens; conditions: Homo sapiens, OMC-1;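 further: growth inhibition of the OMC-1 cell line, measured by a cell viability assay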

Compound | IC50 [nM]
C[C@@H](Oc1cc(-c2cnn(C3CCNCC3)c2)cnc1N)c1c(Cl)ccc(F)c1Cl [CRIZOTINIB] | > 2000

test system: LC-2-ad; experiment: cells; assay type: functional, cell-based, Homo sapiens; conditions: Homo sapiens, LC-2-ad;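 further: growth inhibition of human LC-2-ad cells, read out with a cell viability assay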
Description: SANGER: Inhibition of human LC-2-ad cell growth in a cell viability assay.

Compound | IC50 [nM]
C[C@@H](Oc1cc(-c2cnn(C3CCNCC3)c2)cnc1N)c1c(Cl)ccc(F)c1Cl [CRIZOTINIB] | > 2000

test system: EW-3; experiment: cells; assay type: functional, cell-based, Homo sapiens; conditions: Homo sapiens, EW-3;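 further: cell viability assay read-out, IC50 reflects inhibition of growth of the EW-3 cells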
Description: SANGER: Inhibition of human EW-3 cell growth in a cell viability assay.

Compound | IC50 [nM]
C[C@@H](Oc1cc(-c2cnn(C3CCNCC3)c2)cnc1N)c1c(Cl)ccc(F)c1Cl [CRIZOTINIB] | > 2000

test system: KNS-81-FD; experiment: cells; assay type: functional, cell-based, Homo sapiens; conditions: Homo sapiens, KNS-81-FD;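 further: growth inhibition of KNS-81-FD cells, read out with a cell viability assay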
Description: SANGER: Inhibition of human KNS-81-FD cell growth in a cell viability assay.

Compound | IC50 [nM]
C[C@@H](Oc1cc(-c2cnn(C3CCNCC3)c2)cnc1N)c1c(Cl)ccc(F)c1Cl [CRIZOTINIB] | > 2000

test system: CGTH-W-1; experiment: cells; assay type: functional, cell-based, Homo sapiens; conditions: Homo sapiens, CGTH-W-1;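 further: growth inhibition of human CGTH-W-1 cells measured by cell viability assay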
Description: SANGER: Inhibition of human CGTH-W-1 cell growth in a cell viability assay.

Compound | IC50 [nM]
C[C@@H](Oc1cc(-c2cnn(C3CCNCC3)c2)cnc1N)c1c(Cl)ccc(F)c1Cl [CRIZOTINIB] | > 2000

test system: TE-11; experiment: cells; assay type: functional, cell-based; conditions: Homo sapiens;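 further: growth inhibition of human TE-11 cells, read out by a cell viability assay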
Description: SANGER: Inhibition of human TE-11 cell growth in a cell viability assay.

Compound | IC50 [nM]
C[C@@H](Oc1cc(-c2cnn(C3CCNCC3)c2)cnc1N)c1c(Cl)ccc(F)c1Cl [CRIZOTINIB] | > 2000

test system: TE-5; experiment: cells; assay type: functional, cell-based, Homo sapiens; conditions: Homo sapiens, TE-5;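 further: inhibition of cell growth, read out by a cell viability assay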
Description: SANGER: Inhibition of human TE-5 cell growth in a cell viability assay.

Compound | IC50 [nM]
C[C@@H](Oc1cc(-c2cnn(C3CCNCC3)c2)cnc1N)c1c(Cl)ccc(F)c1Cl [CRIZOTINIB] | > 2000

test system: LS-411N; experiment: cells; assay type: functional, cell-based, Homo sapiens; conditions: Homo sapiens, LS-411N

Compound | IC50 [nM]
C[C@@H](Oc1cc(-c2cnn(C3CCNCC3)c2)cnc1N)c1c(Cl)ccc(F)c1Cl [CRIZOTINIB] | > 2000

test system: ES1; experiment: cells; assay type: functional, cell-based, Homo sapiens; conditions: Homo sapiens, ES1;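 further: growth inhibition of ES1 cells, read out with a cell viability assay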

Compound | IC50 [nM]
C[C@@H](Oc1cc(-c2cnn(C3CCNCC3)c2)cnc1N)c1c(Cl)ccc(F)c1Cl [CRIZOTINIB] | > 2000

test system: RKO; experiment: cells; assay type: functional, cell-based, Homo sapiens; conditions: Homo sapiens, RKO;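 further: growth inhibition of human RKO cells, read out with a cell viability assay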

Compound | IC50 [nM]
C[C@@H](Oc1cc(-c2cnn(C3CCNCC3)c2)cnc1N)c1c(Cl)ccc(F)c1Cl [CRIZOTINIB] | > 2000

test system: BT-474; experiment: cells; assay type: functional, cell-based, Homo sapiens; conditions: Homo sapiens, BT-474
Description: SANGER: Inhibition of human BT-474 cell growth in a cell viability assay.

Compound | IC50 [nM]
C[C@@H](Oc1cc(-c2cnn(C3CCNCC3)c2)cnc1N)c1c(Cl)ccc(F)c1Cl [CRIZOTINIB] | > 2000

test system: LU-134-A; experiment: cells; assay type: functional, cell-based, Homo sapiens; conditions: Homo sapiens, LU-134-A
Description: SANGER: Inhibition of human LU-134-A cell growth in a cell viability assay.

Compound | IC50 [nM]
C[C@@H](Oc1cc(-c2cnn(C3CCNCC3)c2)cnc1N)c1c(Cl)ccc(F)c1Cl [CRIZOTINIB] | > 2000

test system: BB65-RCC; experiment: cells; assay type: functional, cell-based, Homo sapiens; conditions: Homo sapiens, BB65-RCC;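 further: growth inhibition of the cell line, measured with a cell viability assay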
Description: SANGER: Inhibition of human BB65-RCC cell growth in a cell viability assay.

Compound | IC50 [nM]
C[C@@H](Oc1cc(-c2cnn(C3CCNCC3)c2)cnc1N)c1c(Cl)ccc(F)c1Cl [CRIZOTINIB] | > 2000

test system: NCI-H446; experiment: cells; assay type: functional, cell-based, Homo sapiens; conditions: Homo sapiens, NCI-H446;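 further: growth inhibition of NCI-H446 cells determined by a cell viability assay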
Description: SANGER: Inhibition of human NCI-H446 cell growth in a cell viability assay.

Compound | IC50 [nM]
C[C@@H](Oc1cc(-c2cnn(C3CCNCC3)c2)cnc1N)c1c(Cl)ccc(F)c1Cl [CRIZOTINIB] | > 2000

test system: JVM-3; experiment: cells; assay type: functional, cell-based, Homo sapiens; conditions: Homo sapiens, JVM-3;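 further: growth inhibition of human JVM-3 cells, read out with a cell viability assay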
Description: SANGER: Inhibition of human JVM-3 cell growth in a cell viability assay.

Compound | IC50 [nM]
C[C@@H](Oc1cc(-c2cnn(C3CCNCC3)c2)cnc1N)c1c(Cl)ccc(F)c1Cl [CRIZOTINIB] | > 2000

test system: D-263MG; experiment: cells; assay type: functional, cell-based, Homo sapiens; conditions: Homo sapiens, D-263MG
Description: SANGER: Inhibition of human D-263MG cell growth in a cell viability assay.

Compound | IC50 [nM]
C[C@@H](Oc1cc(-c2cnn(C3CCNCC3)c2)cnc1N)c1c(Cl)ccc(F)c1Cl [CRIZOTINIB] | > 2000

test system: NOS-1; experiment: cells; assay type: functional, cell-based, Homo sapiens; conditions: Homo sapiens, NOS-1;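 further: growth inhibition of the human NOS-1 cell line, read out with a cell viability assay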
Description: SANGER: Inhibition of human NOS-1 cell growth in a cell viability assay.

Compound | IC50 [nM]
C[C@@H](Oc1cc(-c2cnn(C3CCNCC3)c2)cnc1N)c1c(Cl)ccc(F)c1Cl [CRIZOTINIB] | > 2000

test system: NCI-H1581; experiment: cells; assay type: functional, cell-based, Homo sapiens; conditions: Homo sapiens, NCI-H1581;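 further: cell growth inhibition read out by a viability assay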
Description: SANGER: Inhibition of human NCI-H1581 cell growth in a cell viability assay.

Compound | IC50 [nM]
C[C@@H](Oc1cc(-c2cnn(C3CCNCC3)c2)cnc1N)c1c(Cl)ccc(F)c1Cl [CRIZOTINIB] | > 2000

test system: NCI-H1092; experiment: cells; assay type: functional, cell-based, Homo sapiens; conditions: Homo sapiens, NCI-H1092;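 further: cell growth inhibition measured with a cell viability assay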
Description: SANGER: Inhibition of human NCI-H1092 cell growth in a cell viability assay.

Compound | IC50 [nM]
C[C@@H](Oc1cc(-c2cnn(C3CCNCC3)c2)cnc1N)c1c(Cl)ccc(F)c1Cl [CRIZOTINIB] | > 2000

test system: A253 cell line; experiment: cells; assay type: functional, cell-based, Homo sapiens; conditions: Homo sapiens, A253;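 further: growth inhibition of A253 cells, read out with a cell viability assay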
Description: SANGER: Inhibition of human A253 cell growth in a cell viability assay.

Compound | IC50 [nM]
C[C@@H](Oc1cc(-c2cnn(C3CCNCC3)c2)cnc1N)c1c(Cl)ccc(F)c1Cl [CRIZOTINIB] | > 2000

test system: HT; experiment: cells; assay type: functional, cell-based, Homo sapiens; conditions: Homo sapiens, HT

Compound | IC50 [nM]
C[C@@H](Oc1cc(-c2cnn(C3CCNCC3)c2)cnc1N)c1c(Cl)ccc(F)c1Cl [CRIZOTINIB] | > 2000

test system: EW-1; experiment: cells; assay type: functional, cell-based, Homo sapiens; conditions: Homo sapiens, EW-1;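 further: growth inhibition of the human EW-1 cell line, read out by a cell viability assay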
Description: SANGER: Inhibition of human EW-1 cell growth in a cell viability assay.

Compound | IC50 [nM]
C[C@@H](Oc1cc(-c2cnn(C3CCNCC3)c2)cnc1N)c1c(Cl)ccc(F)c1Cl [CRIZOTINIB] | > 2000

test system: MN-60; experiment: cells; assay type: functional, cell-based, Homo sapiens; conditions: Homo sapiens, MN-60;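 further: growth inhibition of the MN-60 cell line, determined with a cell viability assay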
Description: SANGER: Inhibition of human MN-60 cell growth in a cell viability assay.

Compound | IC50 [nM]
C[C@@H](Oc1cc(-c2cnn(C3CCNCC3)c2)cnc1N)c1c(Cl)ccc(F)c1Cl [CRIZOTINIB] | > 2000

test system: KP-N-YS; experiment: cells; assay type: functional, cell-based, Homo sapiens; conditions: Homo sapiens, KP-N-YS;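 further: cell viability assay measuring inhibition of cell line growth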
Description: SANGER: Inhibition of human KP-N-YS cell growth in a cell viability assay.

Compound | IC50 [nM]
C[C@@H](Oc1cc(-c2cnn(C3CCNCC3)c2)cnc1N)c1c(Cl)ccc(F)c1Cl [CRIZOTINIB] | > 2000

test system: ES3; experiment: cells; assay type: functional, cell-based, Homo sapiens; conditions: Homo sapiens, ES3;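 further: growth inhibition of ES3 cells, read out with a cell viability assay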
Description: SANGER: Inhibition of human ES3 cell growth in a cell viability assay.

Compound | IC50 [nM]
C[C@@H](Oc1cc(-c2cnn(C3CCNCC3)c2)cnc1N)c1c(Cl)ccc(F)c1Cl [CRIZOTINIB] | > 2000

test system: OCI-AML2; experiment: cells; assay type: functional, cell-based, Homo sapiens; conditions: Homo sapiens, OCI-AML2;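 further: growth inhibition of OCI-AML2 cells, read out with a cell viability assay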

Compound | IC50 [nM]
C[C@@H](Oc1cc(-c2cnn(C3CCNCC3)c2)cnc1N)c1c(Cl)ccc(F)c1Cl [CRIZOTINIB] | > 2000

test system: SK-MEL-2; experiment: cells; assay type: functional, cell-based, Homo sapiens; conditions: Homo sapiens, SK-MEL-2;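 further: growth inhibition of human SK-MEL-2 cells measured with a cell viability assay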
Description: SANGER: Inhibition of human SK-MEL-2 cell growth in a cell viability assay.

Compound | IC50 [nM]
C[C@@H](Oc1cc(-c2cnn(C3CCNCC3)c2)cnc1N)c1c(Cl)ccc(F)c1Cl [CRIZOTINIB] | > 2000

test system: COLO-824; experiment: cells; assay type: functional, cell-based, Homo sapiens; conditions: Homo sapiens, COLO-824
Description: SANGER: Inhibition of human COLO-824 cell growth in a cell viability assay.

Compound | IC50 [nM]
C[C@@H](Oc1cc(-c2cnn(C3CCNCC3)c2)cnc1N)c1c(Cl)ccc(F)c1Cl [CRIZOTINIB] | > 2000

test system: RS4-11; experiment: cells; assay type: functional, cell-based, Homo sapiens; conditions: Homo sapiens, RS4-11;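 further: growth inhibition of RS4-11 cells, read out by a cell viability assay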
Description: SANGER: Inhibition of human RS4-11 cell growth in a cell viability assay.

Compound | IC50 [nM]
C[C@@H](Oc1cc(-c2cnn(C3CCNCC3)c2)cnc1N)c1c(Cl)ccc(F)c1Cl [CRIZOTINIB] | > 2000

test system: KALS-1; experiment: cells; assay type: functional, cell-based, Homo sapiens; conditions: Homo sapiens, KALS-1; read-out: IC50;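 further: growth inhibition of KALS-1 cells, determined with a cell viability assay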
Description: SANGER: Inhibition of human KALS-1 cell growth in a cell viability assay.

Compound | IC50 [nM]
C[C@@H](Oc1cc(-c2cnn(C3CCNCC3)c2)cnc1N)c1c(Cl)ccc(F)c1Cl [CRIZOTINIB] | > 2000

test system: KU812 cell line; experiment: cells; assay type: functional, cell-based, Homo sapiens; conditions: Homo sapiens, KU812;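 further: growth inhibition of KU812 cells, read out with a cell viability assay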
Description: SANGER: Inhibition of human KU812 cell growth in a cell viability assay.

Compound | IC50 [nM]
C[C@@H](Oc1cc(-c2cnn(C3CCNCC3)c2)cnc1N)c1c(Cl)ccc(F)c1Cl [CRIZOTINIB] | > 2000

test system: HCE-4; experiment: cells; assay type: functional, cell-based; conditions: Homo sapiens;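 further: cell viability assay measuring inhibition of growth in the human HCE-4 cell line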
Description: SANGER: Inhibition of human HCE-4 cell growth in a cell viability assay.

Compound | IC50 [nM]
C[C@@H](Oc1cc(-c2cnn(C3CCNCC3)c2)cnc1N)c1c(Cl)ccc(F)c1Cl [CRIZOTINIB] | > 2000

test system: UACC-257; experiment: cells; assay type: functional, cell-based, Homo sapiens; conditions: Homo sapiens, UACC-257
Description: SANGER: Inhibition of human UACC-257 cell growth in a cell viability assay.

Compound | IC50 [nM]
C[C@@H](Oc1cc(-c2cnn(C3CCNCC3)c2)cnc1N)c1c(Cl)ccc(F)c1Cl [CRIZOTINIB] | > 2000

test system: KARPAS-299; experiment: cells; assay type: functional, cell-based, Homo sapiens; conditions: Homo sapiens, KARPAS-299
Description: SANGER: Inhibition of human KARPAS-299 cell growth in a cell viability assay.

Compound | IC50 [nM]
C[C@@H](Oc1cc(-c2cnn(C3CCNCC3)c2)cnc1N)c1c(Cl)ccc(F)c1Cl [CRIZOTINIB] | 1410

test system: PSN1; experiment: cells; assay type: functional, cell-based, Homo sapiens; conditions: Homo sapiens, PSN1;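 further: suppression of growth of human PSN1 cells, read out by a cell viability assay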
Description: SANGER: Inhibition of human PSN1 cell growth in a cell viability assay.

Compound | IC50 [nM]
C[C@@H](Oc1cc(-c2cnn(C3CCNCC3)c2)cnc1N)c1c(Cl)ccc(F)c1Cl [CRIZOTINIB] | > 2000

test system: MLMA; experiment: cells; assay type: functional, cell-based, Homo sapiens; conditions: Homo sapiens, MLMA;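 further: growth inhibition of MLMA cells (human), determined through a cell viability readout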
Description: SANGER: Inhibition of human MLMA cell growth in a cell viability assay.

Compound | IC50 [nM]
C[C@@H](Oc1cc(-c2cnn(C3CCNCC3)c2)cnc1N)c1c(Cl)ccc(F)c1Cl [CRIZOTINIB] | > 2000

test system: KM12; experiment: cells; assay type: functional, cell-based, Homo sapiens; conditions: Homo sapiens, KM12;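 further: KM12 cell growth inhibition, read out with a cell viability assay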
Description: SANGER: Inhibition of human KM12 cell growth in a cell viability assay.

Compound | IC50 [nM]
C[C@@H](Oc1cc(-c2cnn(C3CCNCC3)c2)cnc1N)c1c(Cl)ccc(F)c1Cl [CRIZOTINIB] | 707

test system: NCI-H526; experiment: cells; assay type: functional, cell-based, Homo sapiens; conditions: Homo sapiens, NCI-H526;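 further: growth inhibition of the human NCI-H526 cell line, measured by a cell viability assay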
Description: SANGER: Inhibition of human NCI-H526 cell growth in a cell viability assay.

Compound | IC50 [nM]
C[C@@H](Oc1cc(-c2cnn(C3CCNCC3)c2)cnc1N)c1c(Cl)ccc(F)c1Cl [CRIZOTINIB] | > 2000

test system: NCI-H1770; experiment: cells; assay type: functional, cell-based, Homo sapiens; conditions: Homo sapiens, NCI-H1770;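 further: growth inhibition of NCI-H1770 cells determined with a viability readout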
Description: SANGER: Inhibition of human NCI-H1770 cell growth in a cell viability assay.

Compound | IC50 [nM]
C[C@@H](Oc1cc(-c2cnn(C3CCNCC3)c2)cnc1N)c1c(Cl)ccc(F)c1Cl [CRIZOTINIB] | > 2000

test system: J-RT3-T3-5; experiment: cells; assay type: functional, cell-based, Homo sapiens; conditions: Homo sapiens, J-RT3-T3-5;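 further: cell viability assay measuring growth inhibition of human J-RT3-T3-5 cells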
Description: SANGER: Inhibition of human J-RT3-T3-5 cell growth in a cell viability assay.

Compound | IC50 [nM]
C[C@@H](Oc1cc(-c2cnn(C3CCNCC3)c2)cnc1N)c1c(Cl)ccc(F)c1Cl [CRIZOTINIB] | > 2000

test system: KG-1; experiment: cells; assay type: functional, cell-based, Homo sapiens; conditions: Homo sapiens, KG-1;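 further: growth inhibition of KG-1 cells, read out by a cell viability assay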
Description: SANGER: Inhibition of human KG-1 cell growth in a cell viability assay.

Compound | IC50 [nM]
C[C@@H](Oc1cc(-c2cnn(C3CCNCC3)c2)cnc1N)c1c(Cl)ccc(F)c1Cl [CRIZOTINIB] | > 2000

test system: NCI-H1648; experiment: cells; assay type: functional, cell-based, Homo sapiens; conditions: Homo sapiens, NCI-H1648;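 further: cell viability assay measuring inhibition of NCI-H1648 cell growth, from the Sanger screening data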
Description: SANGER: Inhibition of human NCI-H1648 cell growth in a cell viability assay.

Compound | IC50 [nM]
C[C@@H](Oc1cc(-c2cnn(C3CCNCC3)c2)cnc1N)c1c(Cl)ccc(F)c1Cl [CRIZOTINIB] | > 2000

test system: U-266; experiment: cells; assay type: functional, cell-based, Homo sapiens; conditions: Homo sapiens, U-266

Compound | IC50 [nM]
C[C@@H](Oc1cc(-c2cnn(C3CCNCC3)c2)cnc1N)c1c(Cl)ccc(F)c1Cl [CRIZOTINIB] | > 2000

test system: KY821; experiment: cells; assay type: functional, cell-based, Homo sapiens; conditions: Homo sapiens, KY821;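 further: growth inhibition of human KY821 cells, read out by a cell viability assay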
Description: SANGER: Inhibition of human KY821 cell growth in a cell viability assay.

Compound | IC50 [nM]
C[C@@H](Oc1cc(-c2cnn(C3CCNCC3)c2)cnc1N)c1c(Cl)ccc(F)c1Cl [CRIZOTINIB] | > 2000

test system: MZ1-PC; experiment: cells; assay type: functional, cell-based, Homo sapiens; conditions: Homo sapiens, MZ1-PC;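 further: cell viability assay measuring growth inhibition of human MZ1-PC cells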

Compound | IC50 [nM]
C[C@@H](Oc1cc(-c2cnn(C3CCNCC3)c2)cnc1N)c1c(Cl)ccc(F)c1Cl [CRIZOTINIB] | > 2000

test system: D-247MG; experiment: cells; assay type: functional, cell-based; conditions: Homo sapiens
Description: SANGER: Inhibition of human D-247MG cell growth in a cell viability assay.

Compound | IC50 [nM]
C[C@@H](Oc1cc(-c2cnn(C3CCNCC3)c2)cnc1N)c1c(Cl)ccc(F)c1Cl [CRIZOTINIB] | > 2000

test system: SW 962; experiment: cells; assay type: functional, cell-based, Homo sapiens; conditions: Homo sapiens, SW 962;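 further: growth inhibition of human SW962 cells, read out by a cell viability assay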
Description: SANGER: Inhibition of human SW962 cell growth in a cell viability assay.

Compound | IC50 [nM]
C[C@@H](Oc1cc(-c2cnn(C3CCNCC3)c2)cnc1N)c1c(Cl)ccc(F)c1Cl [CRIZOTINIB] | > 2000

test system: TGBC1TKB; experiment: cells; assay type: functional, cell-based, Homo sapiens; conditions: Homo sapiens, TGBC1TKB;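 further: growth inhibition of TGBC1TKB cells, read out by a cell viability assay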
Description: SANGER: Inhibition of human TGBC1TKB cell growth in a cell viability assay.

Compound | IC50 [nM]
C[C@@H](Oc1cc(-c2cnn(C3CCNCC3)c2)cnc1N)c1c(Cl)ccc(F)c1Cl [CRIZOTINIB] | > 2000

test system: SNU1; experiment: cells; assay type: functional, cell-based, Homo sapiens; conditions: Homo sapiens, SNU1;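 further: growth inhibition of human NCI-SNU-1 cells, measured with a cell viability assay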
Description: SANGER: Inhibition of human NCI-SNU-1 cell growth in a cell viability assay.

Compound | IC50 [nM]
C[C@@H](Oc1cc(-c2cnn(C3CCNCC3)c2)cnc1N)c1c(Cl)ccc(F)c1Cl [CRIZOTINIB] | > 2000
